Legend:
[1] = test system: Human STING (hSTING, residues 155-341); assay: Interaction with hSTING as determined by Differential Scanning Fluorimetry (DSF); type: binding; conditions: 100 μM test compounds, 5 μM target protein
Protocol: Interaction with hSTING as Determined by Differential Scanning Fluorimetry (DSF)
In DSF, the temperature at which a protein unfolds, also called the melting temperature Tm, is measured by changes in fluorescence of a dye that binds to the hydrophobic parts of the protein. Tm shifts upon binding of a small molecule are correlated with the binding affinity of this small molecule. As target protein, Human STING (hSTING, residues 155-341, MW: 21578.4 Da; protein stock solution: c=1302 μM stock solution in 20 mM Tris, 100 mM NaCl, 2 mM TCEP pH 8.8) was used, as assay buffer 20 mM Tris, 150 mM NaCI pH7.5 was added where and as necessary.
Final concentrations of components in assay: 100 μM test compounds, 5 μM target protein, “5×” SYPR Orange (from stock solution SYPRO orange solution in DMSO (invitrogen cat.-no. S6650-500 ul), concentration “5000×”)
1) Dilutions of compound stock solutions (10 mM in DMSO) were prepared in assay buffer (20 mM Tris, 150 mM NaCl; pH7.5)
2) 5 μl fluorescent dye stock solution (5000×SYPRO Orange in DMSO) was mixed with 19 μl target protein (1302 μM) and 976 μl assay buffer.
3) 2 μl of this protein-dye-mixture (25×SYPRO Orange and 25 μM Protein) was added to 8 μl diluted compound solution as prepared in step 1. Final volume was 10 μl.
4) With every 20 compounds, two negative controls were measured.
5) The plates were prepared for duplicate measurement and centrifuged for 2 min at 1000 g.
6) For the measurement, a CFX384 Real-Time System (Bio-Rad) was used. The run consisted of 140 cycles with 0.5° C./cycle (temperature ramp 15 s/cycle, 25° C. to 95° C.).
Data analysis: The melting curves were processed in Bio-Rad CFX Manager. Peak type was set to “negative”. Two replicates of TM (melting temperature) measurements were averaged and the standard deviation was calculated.

STING HAQ-variant = molecular target: T1, STING HAQ-variant (Homo sapiens, UniProt Q86WV6, G230A/H232R/R293Q/R71H); assay: IRF-inducible SEAP reporter assay in THP1-Blue ISG cells, STING HAQ-variant; type: cell-based; conditions: STING HAQ-variant (parental or re-introduced), 24 hours incubation
T1 construct: parental THP1-Blue™ ISG cell lines (which express endogenously HAQ); host or cells: THP1-Blue ISG (parental, endogenous HAQ) or STING-KO clone re-transduced with HAQ (MSCV-ires-GFP-Blasti)
T1 sequence (Q86WV6 whole entry R71H/G230A/H232R/R293Q): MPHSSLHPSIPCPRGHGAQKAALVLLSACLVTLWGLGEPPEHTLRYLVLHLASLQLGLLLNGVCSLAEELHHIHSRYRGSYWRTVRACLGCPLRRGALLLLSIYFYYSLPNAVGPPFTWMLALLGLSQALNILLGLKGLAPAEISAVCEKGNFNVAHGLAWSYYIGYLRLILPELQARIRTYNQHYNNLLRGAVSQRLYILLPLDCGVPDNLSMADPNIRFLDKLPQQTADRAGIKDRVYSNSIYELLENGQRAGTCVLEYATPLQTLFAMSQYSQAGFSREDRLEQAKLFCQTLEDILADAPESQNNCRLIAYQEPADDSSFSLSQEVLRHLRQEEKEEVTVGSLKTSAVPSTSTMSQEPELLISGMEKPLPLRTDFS
From the text: (§1) In Vitro Cytokine Induction Measured Via Activation of an Interferon Regulatory Factor Inducible Reporter Gene
(§2) Activation of the STING protein expressed in cell lines results in an increase of interferon production. By the stable integration of an interferon regulatory factor (IRF)-inducible SEAP gene (secreted embryonic alkaline phosphatase) reporter construct the functional interferon signaling pathway can be monitored. Using Invivogen's THP1-Blue™ ISG colorimetric enzyme assay and a suitable optical density (OD) reader the activity of SEAP can be detected and quantified. This technique could be used to characterize pharmacological modification of the STING pathway.
(§3) Several single nucleotide polymorphisms have been identified in the human STING gene. To determine the activity of the above described compounds, THP1-Blue™ ISG reporter cell lines expressing the different human STING variants have been generated. To do so, the endogenous human STING was first deleted using the CRISPR/CAS9 system: THP1-Blue ISG cells were electroporated with ALL-IN-ONE CRISPR plasmids targeting the STING gene (purchased from Sigma encoding the gRNA and GFP as a reporter gene for successful transduction). GFP positive cells then were sorted 24 h post transfection and expanded. Cells were then dispersed in semisolid methocel medium to allow single cell clone isolations. Clones were then screened for cGAMP responsiveness using the Quanti-Blue™ reporter assay. Non-responsive clones were subsequently analysed for STING loss by western blotting and sequencing of the STING locus.
(§4) For the overexpression of the human STING variants, a confirmed THP1-Blue™ ISG hSTING KO clone was transduced with individual retroviral plasmids (MSCV-ires-GFP-Blasti) encoding the allelic variants of hSTING (WT (H232R), HAQ, R232H, AQ and R293Q). Transduced cells were sorted for different levels of GFP fluorescence and STING allele expression was analysed by western blot.
(§5) Measurements of SEAP activity were performed in THP1-Blue™ ISG cells stably expressing the different human STING isoforms and the IRF-inducible SEAP reporter construct. Cells were cultivated in RPMI1640 medium with 10% fetal calf serum, 50 μg/ml Penicillin-Streptomycin, 100 μg/ml Zeocin, and 100 μg/ml Normocin in a 37°, 95% humidity and 5% CO2 incubator.
(§6) In preparation for the assay, the cells were distributed into the assay plates with a density of 10000 cells/15 μL per well. Compounds were prepared by an 8 point serial dilution in 50% aqueous DMSO and a final dilution step into medium to ensure a final DMSO concentration of 0.5% in the assay. 5 μL of diluted compounds were added to the plates, followed by a 24 hours incubation at 37° C.
(§7) At the day of the assay, 75 μl per well of Quanti-Blue™ reagent was added to all wells of the plate and the plate was incubated another 30 minutes at 37° C. The OD at 620 nm was measured on the EnVision reader (PerkinElmer).
(§8) EC50 values and Hill slopes were derived from 8-point four parametric non-linear curve fittings with the Megalab software (Boehringer Ingelheim) using the OD at 620 nm.
(§9) Data of EC50 values can be found in tables 2a-2e.
Data of EC50 values on STING HAQ-variant can be found in table 2a. Shown data below were either derived from the parental THP1-Blue™ ISG cell lines (which express endogenously HAQ) or from genetically engineered THP1-Blue™ ISG cell lines in which first STING has been knocked-out and the HAQ specific STING isoform has been re-introduced as described above.

STING H232R-variant = molecular target: T2, STING H232R-variant (Homo sapiens, UniProt Q86WV6, H232R); assay: IRF-inducible SEAP reporter assay in THP1-Blue ISG cells, STING H232R-variant; type: cell-based; conditions: STING H232R-variant (WT), 24 hours incubation
T2 construct: expressed in transfected cells; host or cells: THP1-Blue ISG hSTING KO clone, retroviral MSCV-ires-GFP-Blasti
T2 sequence (Q86WV6 whole entry H232R): as the sequence (Q86WV6 whole entry R71H/G230A/H232R/R293Q) above, with H71R, A230G, Q293R counted along it
From the text: as §1, §2, §3, §4, §5, §6, §7, §8, §9
Data of EC50 values on STING H232R-variant can be found in table 2b: […]

STING R232H-variant = molecular target: T3, STING R232H-variant (Homo sapiens, UniProt Q86WV6); assay: IRF-inducible SEAP reporter assay in THP1-Blue ISG cells, STING R232H-variant; type: cell-based; conditions: 24 hours incubation
T3 construct: expressed in transfected cells; host or cells: THP1-Blue ISG hSTING KO clone, retroviral MSCV-ires-GFP-Blasti
T3 sequence (Q86WV6 whole entry, stated change not applied): as the sequence (Q86WV6 whole entry R71H/G230A/H232R/R293Q) above, with H71R, A230G, R232H, Q293R counted along it
From the text: as §1, §2, §3, §4, §5, §6, §7, §8, §9
Data of EC50 values on STING R232H-variant can be found in table 2c: […]

STING R293Q-variant = molecular target: T4, STING R293Q-variant (Homo sapiens, UniProt Q86WV6, H232R/R293Q); assay: IRF-inducible SEAP reporter assay in THP1-Blue ISG cells, STING R293Q-variant; type: cell-based; conditions: 24 hours incubation
T4 construct: expressed in transfected cells; host or cells: THP1-Blue ISG hSTING KO clone, retroviral MSCV-ires-GFP-Blasti
T4 sequence (Q86WV6 whole entry H232R/R293Q): as the sequence (Q86WV6 whole entry R71H/G230A/H232R/R293Q) above, with H71R, A230G counted along it
From the text: as §1, §2, §3, §4, §5, §6, §7, §8, §9
Data of EC50 values on STING R293Q-variant can be found in table 2d: […]

STING AQ-variant = molecular target: T5, STING AQ-variant (Homo sapiens, UniProt Q86WV6, G230A/H232R/R293Q); assay: IRF-inducible SEAP reporter assay in THP1-Blue ISG cells, STING AQ-variant; type: cell-based; conditions: 24 hours incubation
T5 construct: expressed in transfected cells; host or cells: THP1-Blue ISG hSTING KO clone, retroviral MSCV-ires-GFP-Blasti
T5 sequence (Q86WV6 whole entry G230A/H232R/R293Q): as the sequence (Q86WV6 whole entry R71H/G230A/H232R/R293Q) above, with H71R counted along it
From the text: as §1, §2, §3, §4, §5, §6, §7, §8, §9
Data of EC50 values on STING AQ-variant can be found in table 2e: […]

in vitro = conditions: human, Caco-2, pH 7.4
Protocol: Cellular Permeability Measurements
Caco-2 cells were obtained from Leibniz Institute DSMZ-German Collection of Microorganisms and Cell Cultures (Braunschweig, Germany) and cultured in DMEM (Dulbecco's modified Eagle medium) containing (in final concentrations) 10% FCS (fetal calf serum), 1% NEAA (non-essential amino acids), 2 mM Glutamin, 100 U/mL Penicillin and 100 μg/mL Streptomycin. Caco-2 cells were seeded either onto 24-well Transwell inserts (Corning, #3379) for bidirectional permeability assays at a density of 160,000 cells/cm^2 and cultured for 3 weeks, with media change on every second day.
For bidirectional permeability assays 10 mM DMSO stock solutions were diluted in transport buffer (final concentrations: 128.13 mM NaCl, 5.36 mM KCl, 1 mM MgSO4, 1.8 mM CaCl2, 4.17 mM NaHCO3, 1.19 mM Na2HPO4, 0.41 mM NaH2PO4, 15 mM 2-[4-(2-hydroxyethyl)piperazin-1-yl]ethanesulfonic acid (HEPES), 20 mM glucose, pH 7.4) containing 0.25% bovine serum albumin to a final concentration of 10 μM of the test compounds and added to the apical or basal compartment. Cells were incubated with the compounds for up to 2 h. Samples from the opposite compartment were taken at different timepoints.
Compound concentrations in the compartments were quantified using a RapidFire-based high-throughput HPLC/MS/MS system (high performance liquid chromatography/mass spectrometry; Bio-Cius) that was customized to a fully automated and flexible platform, termed RIAS. In this modified setup, the sample was aspirated by a vacuum pump into a 10 μL sample loop for 250 ms and flushed onto a C4 cartridge (3.8 μL bed volume; Bio-Cius) with the aqueous mobile phase (99.9% water, 0.09% formic acid, and 0.01% TFA; flow rate 1.5 mL/min). Prior to bioanalysis samples were spiked with internal standard solution and diluted with acetonitrile (ACN) for protein precipitation. Measurement was operated in multiplereaction monitoring (MRM) mode. Quantification was performed using external calibration. A solid-phase extraction step retained the analyte for 3000 ms while interfering matrix (e.g., buffer components) was removed. With a simple step gradient, the analyte was back-eluted from the cartridge for 3,000 ms with the organic mobile phase (99.9% acetonitrile/methanol [1:1, v:v], 0.09% formic acid, and 0.01% TFA) and flushed into the mass spectrometer at a flow rate of 1.25 mL/min. Afterwards, the cartridge was re-equilibrated with the aqueous mobile phase for 500 ms (flow rate 1.5 mL/min).
Apparent permeability coefficients in the apical to basal direction (Papp,AB) and in the basal to apical direction (Papp,BA) and efflux ratios were calculated as follows: Papp,AB=QAB/(C0·s·t) Papp,BA=QBA/(C0·s·t) Efflux ratio=Papp,BA/Papp,AB
where Q is the amount of compound recovered in the receiver compartment after the incubation time t, C0 the initial compound concentration given to the donor compartment, and s the surface area of the Transwell inserts. […] In addition, transepithelial electrical resistance (TEER) values are measured for each plate before the permeability assay, and total recovery in donor and receiver compartments was determined for each compound.

SMILES	EC50 (STING HAQ-variant)	EC50 (STING H232R-variant)	EC50 (STING R232H-variant)	EC50 (STING R293Q-variant)	EC50 (STING AQ-variant)	Papp A→B at 10 μM (in vitro)	efflux ratio at 10 μM (in vitro)	thermal shift (ΔTm) [1]
Cc1cc2c(-c3nn(-c4ccc(N5CCC(C(=O)O)CC5)nc4)c4c(C)cccc34)cccc2cn1 [Example #61, 1-{5-[7-methyl-3-(3-methylisoquinolin-5-yl)-1H-indazol-1-yl]pyridin-2-yl}piperidine-4-carboxylic acid]	3000 nM	2900 nM	2900 nM	2200 nM	3000 nM	10 ×10⁻⁶ cm/s	1.1	16 K
Cc1cccc2c(-c3cccc4nn(C)cc34)nn(-c3ccc(N4CC5(CCN(C=O)C5)C4)nc3)c12 [compound 53, 2-(5-{2′,7-dimethyl-1H,2′H-[3,4′-biinda-zol]-1-yl}pyridin-2-yl)-2,6-dia-zaspiro[3.4]octane-6-carbaldehyde]	1700 nM	700 nM	700 nM	1600 nM	1900 nM	50 ×10⁻⁶ cm/s	0.2	20 K
CCc1cccc2c(-c3cccc4nn(C)cc34)nn(-c3ccc(N4CCC(C(=O)O)CC4)nc3)c12 [Example #66, 1-(5-{7-ethyl-2′-methyl-1H,2′H-[3,4′-biindazol]-1-yl}pyridin-2-yl)piperidine-4-carboxylic acid]	1600 nM	300 nM	200 nM	700 nM	800 nM	–	–	16 K
CCc1cccc2c(-c3cccc4nn(C)cc34)nn(-c3ccc(N4CC5C(C4)C5C(=O)O)nc3)c12 (stereo not shown) [compound 65, 3-(5-{7-ethyl-2′-methyl-1H,2′H-[3,4′-biindazol]-1-yl}pyridin-2-yl)-3-azabicy-clo[3.1.0]hexane-6-car-boxylic acid]	200 nM	100 nM	100 nM	100 nM	100 nM	–	–	21 K
Cc1cccc2c(-c3cccc4nn(C)cc34)nn(-c3ccc(N4CC5(CN(C=O)C5)C4)nc3)c12 [compound 54, 6-(5-{2′,7-dimethyl-1H,2′H-[3,4′-biinda-zol]-1-yl}pyridin-2-yl)-2,6-diaza-spiro[3.3]heptane-2-carbaldehyde]	2100 nM	300 nM	–	–	5300 nM	38 ×10⁻⁶ cm/s	0.8	21 K

Continued by falling EC50 (STING HAQ-variant), values first:

EC50 (STING HAQ-variant)	EC50 (STING H232R-variant)	EC50 (STING R232H-variant)	EC50 (STING R293Q-variant)	EC50 (STING AQ-variant)	Papp A→B at 10 μM (in vitro)	efflux ratio at 10 μM (in vitro)	SMILES	thermal shift (ΔTm) [1]
2700 nM	2000 nM	2300 nM	2200 nM	–	–	–	Cc1cccc2c(-c3cccc4nn(C)cc34)nn(-c3ccc(NCc4cncnc4)nc3)c12 [compound 24, 5-{2′,7-dimethyl-1H,2′H-[3,4′-biindazol]-1-yl}-N-[(pyrimidin-5-yl)methyl]pyridin-2-amine]	–
1900 nM	400 nM	600 nM	2100 nM	–	11 ×10⁻⁶ cm/s	0.4	Cc1cccc2c(-c3cccc4nn(C)cc34)nn(-c3ccc(N4CCn5cncc5C4)nc3)c12 [compound 12, 1-(6-{5H,6H,7H,8H-imidazo[1,5-a]pyrazin-7-yl}pyridin-3-yl)-2′,7-dimethyl-1H,2'H-3,4′-biindazole]	21 K
1800 nM	600 nM	300 nM	700 nM	800 nM	–	–	Cc1cccc2c(-c3cccc4nn(C)cc34)nn(-c3ccc(N4CC5C(C4)C5C(N)=O)nc3)c12 (stereo not shown) [compound 72, 3-(5-{2′,7-dimethyl-1H,2′H-[3,4′-biindazol]-1-yl}pyridin-2-yl)-3-azabicyclo[3.1.0]hexane-6-carboxamide]	18 K
1400 nM	500 nM	1000 nM	1200 nM	–	–	–	Cc1cccc2c(-c3cccc4nn(C)cc34)nn(-c3ccc(N4CCS(=O)(=O)CC4)nc3)c12 [Example #5, 4-(5-{2,7-dimethyl-1H,2′H-[3,4′-biindazol]-1-yl}pyri-din-2-yl)-1λ^6-thiomorpho-line-1,1-dione]	–
1000 nM	100 nM	200 nM	600 nM	700 nM	23 ×10⁻⁶ cm/s	0.3	Cc1cccc2c(-c3cccc4nn(C)cc34)nn(-c3ccc(N4CCC5(CC4)C(=O)N(C)C(=O)N5C)nc3)c12 [compound 9, 8-(5-{2′,7-dimethyl-1H,2′H-[3,4′-biindazol]-1-yl}pyri-din-2-yl)-1,3-dimethyl-1,3,8-triazaspiro[4.5] decane-2,4-dione]	23 K
700 nM	200 nM	600 nM	500 nM	–	–	–	Cn1cc2c(-c3nn(-c4ccc(N5CC6C(C5)C6C(=O)O)nc4)c4c(Br)cccc34)cccc2n1 (stereo not shown) [compound 64, 3-(5-{7-bromo-2′-methyl-1H,2′H-[3,4′-biindazol]-1-yl}pyridin-2-yl)-3-azabicy-clo[3.1.0]hexane-6-car-boxylic acid]	–
300 nM	50 nM	50 nM	300 nM	200 nM	–	–	Cc1cccc2c(-c3cccc4nn(C)cc34)nn(-c3ccc(N4CCN(C=O)CC4)nc3)c12 [compound 51, 4-(5-(2′,7-dimethyl-1H,2′H-[3,4′-biindazol]-1-yl)pyridin-2-yl)piperazine-1-carbaldehyde]	15 K

Source: patent US12065427B2, “Heterocyclic compounds capable of activating STING” (BOEHRINGER INGELHEIM INTERNATIONAL GMBH, priority 2021, dated 2024)
